Experimental data from patent US20230278972A1, “SUBSTITUTED HALOALKYL SULFONANILIDE HERBICIDES” (FMC Corporation, priority 2020, published 2023).

Columns and labels:
Format in all cases: in vivo
[1] = system: barnyardgrass (Echinochloa crus-galli); test: Test A preemergence, barnyardgrass; conditions: Preemergence; for Barnyardgrass plant response rating: 125 g ai/ha, visual injury on 0 to 100 scale (0 no effect, 100 complete control), approximately 10 days; for Plant response rating, Barnyardgrass: 0 to 100 scale (0 no effect, 100 complete control)
Procedure, shortened: (§1)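 Seeds are sown in loam mixed with sand and sprayed on the soil surface right after planting for the preemergence test. Postemergence pots are sprayed once seedlings reach 2 to 10 cm at the one- to two-leaf stage. The same surfactant-containing, non-phytotoxic solvent formulation serves both.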

[2] = system: kochia (Bassia scoparia); test: Test A preemergence, kochia; conditions: Preemergence; for Kochia plant response rating: visual injury on 0 to 100 scale (0 no effect, 100 complete control), approximately 10 days; for Plant response rating, Kochia: 0 to 100 scale (0 no effect, 100 complete control)
Procedure, shortened: as §1

[3] = system: ragweed (common ragweed, Ambrosia artemisiifolia); test: Test A preemergence, ragweed; conditions: Preemergence; for Ragweed plant response rating: visual injury on 0 to 100 scale (0 no effect, 100 complete control), approximately 10 days; for Plant response rating, Ragweed: 0 to 100 scale (0 no effect, 100 complete control)
Procedure, shortened: as §1

[4] = system: Ryegrass, Italian (Italian ryegrass, Lolium multiflorum); test: Test A preemergence, Ryegrass, Italian; conditions: Preemergence; for Ryegrass, Italian plant response rating: visual injury on 0 to 100 scale (0 no effect, 100 complete control), approximately 10 days; for Plant response rating, Ryegrass, Italian: 0 to 100 scale (0 no effect, 100 complete control)
Procedure, shortened: as §1

[5] = system: Foxtail, Giant (giant foxtail, Setaria faberi); test: Test A preemergence, Foxtail, Giant; conditions: Preemergence; for Foxtail, Giant plant response rating: visual injury on 0 to 100 scale (0 no effect, 100 complete control), approximately 10 days; for Plant response rating, Foxtail, Giant: 0 to 100 scale (0 no effect, 100 complete control)
Procedure, shortened: as §1

[6] = system: pigweed (Amaranthus retroflexus); test: Test A preemergence, pigweed; conditions: for Pigweed plant response rating: visual injury on 0 to 100 scale (0 no effect, 100 complete control), approximately 10 days; for Plant response rating, Pigweed: 0 to 100 scale (0 no effect, 100 complete control)
Procedure, shortened: (§2)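 Postemergence ratings come from foliar sprays onto one- to two-leaf plants of 2 to 10 cm grown in loam/sand; preemergence ratings come from a directed spray onto the soil of newly seeded pots. Formulation was a surfactant-containing non-phytotoxic solvent blend.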

[7] = system: barnyardgrass (Echinochloa crus-galli); test: Test A postemergence, barnyardgrass; conditions: Postemergence, 0 to 100 scale (0 no effect, 100 complete control); for Barnyardgrass plant response rating: 500 g ai/ha, visual injury vs untreated controls after approx. 10 days
Procedure, shortened: as §2

[8] = system: kochia (Bassia scoparia); test: Test A postemergence, kochia; conditions: Postemergence, 0 to 100 scale (0 no effect, 100 complete control); for Kochia plant response rating: 500 g ai/ha, visual injury vs untreated controls after approx. 10 days
Procedure, shortened: as §1

[9] = system: ragweed (common ragweed, Ambrosia artemisiifolia); test: Test A postemergence, ragweed; conditions: Postemergence, 0 to 100 scale (0 no effect, 100 complete control); for Ragweed plant response rating: 500 g ai/ha, visual injury vs untreated controls after approx. 10 days
Procedure, shortened: as §1

[10] = system: Ryegrass, Italian (Italian ryegrass, Lolium multiflorum); test: Test A postemergence, Ryegrass, Italian; conditions: Postemergence, 0 to 100 scale (0 no effect, 100 complete control); for Ryegrass, Italian plant response rating: 500 g ai/ha, visual injury vs untreated controls after approx. 10 days
Procedure, shortened: as §1

[11] = system: Foxtail, Giant (giant foxtail, Setaria faberi); test: Test A postemergence, Foxtail, Giant; conditions: Postemergence, 0 to 100 scale (0 no effect, 100 complete control); for Foxtail, Giant plant response rating: 500 g ai/ha, visual injury vs untreated controls after approx. 10 days
Procedure, shortened: as §1

[12] = system: pigweed (Amaranthus retroflexus); test: Test A postemergence, pigweed; conditions: Postemergence, 0 to 100 scale (0 no effect, 100 complete control); for Pigweed plant response rating: 500 g ai/ha, visual injury vs untreated controls after approx. 10 days
Procedure, shortened: as §1

[13] = system: wheat (Triticum aestivum); test: Test A postemergence, wheat; conditions: Postemergence, 0 to 100 scale (0 no effect, 100 complete control); for Wheat plant response rating: 500 g ai/ha, visual injury vs untreated controls after approx. 10 days
Procedure, shortened: as §2

[14] = system: corn (Zea mays); test: Test A postemergence, corn; conditions: Postemergence, 0 to 100 scale (0 no effect, 100 complete control); for Corn plant response rating: 500 g ai/ha, visual injury vs untreated controls after approx. 10 days
Procedure, shortened: as §1

[15] = system: blackgrass (Alopecurus myosuroides); test: Test A postemergence, blackgrass; conditions: Postemergence, 0 to 100 scale (0 no effect, 100 complete control); for Blackgrass plant response rating: 500 g ai/ha, visual injury vs untreated controls after approx. 10 days
Procedure, shortened: as §1

[16] = system: galium (catchweed bedstraw, Galium aparine); test: Test A postemergence, galium; conditions: Postemergence, 0 to 100 scale (0 no effect, 100 complete control); for Galium plant response rating: 500 g ai/ha, visual injury vs untreated controls after approx. 10 days
Procedure, shortened: as §2

[17] = 125 g ai/ha, visual injury approx. 10 days
[18] = 125 g ai/ha, visual injury, approx. 10 days
[19] = 1000 g ai/ha, visual injury, approx. 10 days

Row | SMILES | Barnyardgrass plant response rating [1] | Plant response rating, Barnyardgrass ([1]; 500 g ai/ha) | Kochia plant response rating ([2]; 125 g ai/ha) | Plant response rating, Kochia ([2]; 500 g ai/ha) | Ragweed plant response rating ([3]; 125 g ai/ha) | Plant response rating, Ragweed ([3]; 500 g ai/ha) | Ryegrass, Italian plant response rating ([4]; 125 g ai/ha) | Plant response rating, Ryegrass, Italian ([4]; 500 g ai/ha) | Plant response rating, Foxtail, Giant ([5]; 500 g ai/ha) | Plant response rating, Pigweed ([6]; 500 g ai/ha) | Barnyardgrass plant response rating [7] | Kochia plant response rating [8] | Ragweed plant response rating [9] | Ryegrass, Italian plant response rating [10] | Foxtail, Giant plant response rating [11] | Pigweed plant response rating [12] | Wheat plant response rating [13] | Corn plant response rating [14] | Blackgrass plant response rating [15] | Galium plant response rating [16] | other results
1 | COC1CCCN(C(=O)c2cc(NS(=O)(=O)C(F)(F)F)c(C)cc2C)C1 (stereo not drawn) [Compound 175] | 90 | 100 | 90 | 100 | 80 | 100 | 90 | 100 | 100 | 100 | 90 | 50 | 90 | 80 | 30 | 90 | 80 | 10 | 20 | 90 | Foxtail, Giant plant response rating ([5]; 125 g ai/ha): 100; Pigweed plant response rating ([6]; 125 g ai/ha): 90; Plant response rating, Barnyardgrass ([7]; 125 g ai/ha): 20; Plant response rating, Kochia ([8]; 125 g ai/ha): 10; Plant response rating, Ragweed ([9]; 125 g ai/ha): 50; Plant response rating, Ryegrass, Italian ([10]; 125 g ai/ha): 30; Plant response rating, Foxtail, Giant ([11]; 125 g ai/ha): 0; Plant response rating, Pigweed ([12]; 125 g ai/ha): 50; Plant response rating, Wheat ([13]; 125 g ai/ha): 10; Plant response rating, Corn ([14]; 125 g ai/ha): 0; Plant response rating, Blackgrass ([15]; 125 g ai/ha): 0; Plant response rating, Galium ([16]; 125 g ai/ha): 80
2 | Cc1cc(C)c(-c2cc(Br)nn(C)c2=O)cc1NS(=O)(=O)C(F)(F)F [Compound 69] | 40 | 90 | 70 | 90 | 50 | 90 | 100 | 100 | 100 | 100 | 80 | 60 | 80 | 70 | 90 | 90 | 70 | 20 | 50 | 70 | Foxtail, Giant plant response rating ([5]; 125 g ai/ha): 100; Pigweed plant response rating ([6]; 125 g ai/ha): 80; Plant response rating, Barnyardgrass [7, 17]: 0; Plant response rating, Kochia [8, 17]: 40; Plant response rating, Ragweed [9, 17]: 60; Plant response rating, Ryegrass, Italian [10, 17]: 40; Plant response rating, Foxtail, Giant [11, 17]: 80; Plant response rating, Pigweed [12, 17]: 70; Plant response rating, Wheat [13, 17]: 60; Plant response rating, Corn [14, 17]: 10; Plant response rating, Blackgrass [15, 17]: 0; Plant response rating, Galium [16, 17]: 60
3 | Cc1cc(Cl)c(N(S(=O)(=O)C(F)(F)F)S(=O)(=O)C(F)(F)F)cc1C1=NOC(C)(C)C1 [Compound 222] | – | 90 | – | 40 | – | 90 | – | 80 | 50 | 100 | 70 | 50 | 90 | 0 | 10 | 40 | 70 | 0 | 20 | 90 | Plant response rating, Kochia [2, 18]: 0; Plant response rating, Ragweed [3, 18]: 60; Plant response rating, Ryegrass, Italian [4, 18]: 30; Plant response rating, Foxtail, Giant [5, 18]: 40; Plant response rating, Pigweed [6, 18]: 50; Plant response rating, Barnyardgrass ([7]; 125 g ai/ha): 10; Plant response rating, Kochia ([8]; 125 g ai/ha): 10; Plant response rating, Ragweed ([9]; 125 g ai/ha): 50; Plant response rating, Ryegrass, Italian ([10]; 125 g ai/ha): 0; Plant response rating, Foxtail, Giant ([11]; 125 g ai/ha): 0; Plant response rating, Pigweed ([12]; 125 g ai/ha): 20; Plant response rating, Wheat ([13]; 125 g ai/ha): 0; Plant response rating, Corn ([14]; 125 g ai/ha): 0; Plant response rating, Blackgrass ([15]; 125 g ai/ha): 20; Plant response rating, Galium ([16]; 125 g ai/ha): 90
4 | Cc1ccc(C(=O)N2CCC(C(C)(C)C)CC2)cc1NS(=O)(=O)C(F)(F)F [Compound 262] | – | – | – | – | – | – | – | – | – | – | – | – | – | – | – | – | – | – | – | – | Plant response rating, Barnyardgrass ([1]; 1000 g ai/ha): 20; Plant response rating, Kochia ([2]; 1000 g ai/ha): 0; Plant response rating, Ragweed ([3]; 1000 g ai/ha): 0; Plant response rating, Ryegrass, Italian ([4]; 1000 g ai/ha): 20; Plant response rating, Foxtail, Giant ([5]; 1000 g ai/ha): 70; Plant response rating, Pigweed ([6]; 1000 g ai/ha): 0; Plant response rating, Barnyardgrass [7, 19]: 0; Plant response rating, Kochia [8, 19]: 0; Plant response rating, Ragweed [9, 19]: 0; Plant response rating, Ryegrass, Italian [10, 19]: 20; Plant response rating, Foxtail, Giant [11, 19]: 0; Plant response rating, Pigweed [12, 19]: 20; Plant response rating, Wheat [13, 19]: 0; Plant response rating, Corn [14, 19]: 0; Plant response rating, Blackgrass [15, 19]: 20; Plant response rating, Galium [16, 19]: 40
